The values that follow come from patent US20060068007A1, “Class of surfactant-like materials” (Boehringer Ingelheim Pharmaceuticals, Inc., priority 2004, published 2006).

The data set is described as follows: Solubility of the active agent depending on pH. It is filed as physicochemical. The following applies: basic conditions. The procedure:
The tablets were prepared similarly as described in Example 3.

As for `COc1ccc2c(O[C@@H]3C[C@H]4C(=O)N[C@]5(C(=O)O)CC5/C=C\CCCCC[C@H](NC(=O)OC5CCCC5)C(=O)N4C3)cc(-c3csc(NC(C)C)n3)nc2c1` (stereo partly drawn) [(Z)-(1S,4R,14S,18R)-14-Cyclopentyloxycarbonylamino-18-[2-(2-isopropylamino-thiazol-4-yl)-7-methoxy-quinolin-4-yloxy]-2,15-dioxo-3,16-diaza-tricyclo[14.3.0.0^4,6]nonadec-7-ene-4-carboxylic acid], the solubility entry is on record as “higher solubility in basic conditions”.
